{"source": "patent US20040148013A1", "about": "“Stent-based delivery statins to prevent restenosis” (priority 2003, published 2004)", "origin": "cited, not measured here", "key": {"neointimal accumulation": {"system": "neointimal accumulation", "settings": "in vivo, rat carotid artery injury model"}}}
{"smiles": "CC(=O)O[C@H]1C(=O)[C@@]2(C)[C@H]([C@H](OC(=O)c3ccccc3)[C@]3(O)C[C@H](OC(=O)[C@H](O)[C@@H](NC(=O)c4ccccc4)c4ccccc4)C(C)=C1C3(C)C)[C@]1(OC(C)=O)CO[C@@H]1C[C@@H]2O", "note": "[Taxol®, Paclitaxel]", "values": [{"measurement": "induction of apoptosis", "setting": "SMC; biologically relevant concentrations", "result": "does not appear to induce apoptosis"}, {"measurement": "SMC proliferation", "setting": "SMC; in vitro", "result": "inhibited"}, {"measurement": "platelet-derived growth factor-stimulated SMC migration", "setting": "SMC; in vitro", "result": "inhibited"}, {"measurement": "neointimal accumulation", "setting": "neointimal accumulation", "result": "inhibited neointimal accumulation"}]}
